Source: patent US20260240179A1, “EDIBLE COMPOSITIONS AND METHODS FOR THE PRESERVATION OF FRUITS AND VEGETABLES” (ONYX LOTUS, LLC, priority 2023, published 2026)
“And” between values parts separate entries of the source, which are not always exact repeats. Equal values may be shown once.

Columns and labels:
Java plums = assay: Weight of dipped Java plums over time (moisture retention and freshness)
Protocol: Starting with two sets of java plums, each set containing eight plums, a control set is dipped in 95% ethanol and placed at room temperature and 50% Relative humidity. A second set, the treatment set, is dipped in a zein composition consisting of 100 mL 95% Ethanol+6 g zein powder. […] were weighed on days 1, 2, 3, 4, 6, 7. Weights were taken to approximate moisture retention and freshness. After 7 days, average weight loss of control (no zein applied) Java plums was 28.5% compared to 23.6% weight loss for zein treatment. Java plums treated with zein retained 17.2% more moisture compared to untreated plums.

blueberries = assay: Weight of dipped blueberries over time (moisture retention and freshness)
[1] = single fruit samples, zein dip (6 g in 100 mL 95% ethanol), 23-25° C., Day 1

Substance: zein
- average weight loss (Java plums; Java plums, after 7 days, dipped in 100 mL 95% ethanol+6 g zein powder, control 28.5%): 23.6%
- more moisture retained compared to untreated plums (Java plums; Java plums, after 7 days, zein dip): 17.2%
- Weight of Java plums, Day 1 (Java plums; [1]): 15.82 grams and 15.19 grams and 11.63 grams and 11.83 grams and 16.16 grams and 14.65 grams and 14.35 grams and 12.88 grams
- Weight of Java plums, Day 2 (Java plums; zein dip, 23-25° C., Day 2): 15.03 grams and 14.42 grams and 10.79 grams and 11.19 grams and 13.65 grams and 13.13 grams and 13.63 grams and 12.24 grams
- Weight of Java plums, Day 3 (Java plums; zein dip, 23-25° C., Day 3): 14.46 grams and 13.88 grams and 10.33 grams and 10.72 grams and 12.96 grams and 19.13 grams and 11.78 grams
- Weight of Java plums, Day 4 (Java plums; zein dip, 23-25° C., Day 4): 13.72 grams and 13.16 grams and 9.72 grams and 9.12 grams and 12.36 grams and 12.67 grams and 11.18 grams
- Weight of Java plums, Day 6 (Java plums; zein dip, 23-25° C., Day 6): 12.53 grams and 12.02 grams and 8.73 grams and 11.33 grams and 11.39 grams and 10.2 grams
- Weight of Java plums, Day 7 (Java plums; zein dip, 23-25° C., Day 7): 12.15 grams and 11.66 grams and 8.4 grams and 11 grams and 11.03 grams and 9.87 grams
- average weight loss (blueberries; blueberries, after nine days, dipped in 100 mL 95% ethanol+6 g zein powder, control 43.1%): 37.2%
- more moisture retained compared to untreated berries (blueberries; blueberries, after nine days, zein dip): 13.7%
- Weight of blueberries, Day 1 (blueberries; [1]): 1.6 grams and 1.79 grams and 1.62 grams and 1.71 grams and 1.7 grams
- Weight of blueberries, Day 2 (blueberries; zein dip, 23-25° C., Day 2): 1.52 grams and 1.7 grams and 1.53 grams and 1.63 grams
- Weight of blueberries, Day 3 (blueberries; zein dip, 23-25° C., Day 3): 1.44 grams and 1.6 grams and 1.54 grams and 1.55 grams
- Weight of blueberries, Day 5 (blueberries; zein dip, 23-25° C., Day 5): 1.3 grams and 1.65 grams and 1.99 grams and 1.63 grams
- Weight of blueberries, Day 6 (blueberries; zein dip, 23-25° C., Day 6): 1.23 grams and 1.22 grams and 1.37 grams and 1.32 grams and 1.36 grams
- Weight of blueberries, Day 7 (blueberries; zein dip, 23-25° C., Day 7): 1.16 grams and 1.31 grams and 1.26 grams and 1.3 grams
- Weight of blueberries, Day 8 (blueberries; zein dip, 23-25° C., Day 8): 1.09 grams and 1.1 grams and 1.26 grams and 1.19 grams
- Weight of blueberries, Day 11 (blueberries; zein dip, 23-25° C., Day 11): 1.06 grams and 1.2 grams and 1.15 grams and 1.19 grams
- Weight of blueberries, Day 12 (blueberries; zein dip, 23-25° C., Day 12): 0.97 grams and 0.98 grams and 1.12 grams and 1.08 grams and 1.13 grams
- Weight of blueberries, Day 13 (blueberries; zein dip, 23-25° C., Day 13): 0.85 grams and 0.86 grams and 1.01 grams and 0.97 grams
- Weight of blueberries, Day 14 (blueberries; zein dip, 23-25° C., Day 14): 0.82 grams and 0.832 grams and 0.98 grams and 0.94 grams
